The results in this text go back to patent US20220331357A1, “COMPOSITIONS AND METHODS FOR THE PREVENTION AND TREATMENT OF PANCREATITIS” (Duke University, priority 2019, published 2022).

Read-outs that look alike come from different tables or passages of the source.

Series [1] deals with pancreatic acini from C57BL/6J mice. In kind it is cell-based. The following applies: 50 mM ethanol. The method, then: In order to determine the effect of ethanol exposure and phosphate levels on acinar cell function, studies were conducted in vitro. Pancreata was harvested from ND-fed and LPD-fed C57BL/6J mice and isolated acinar cells using phosphate-free buffer solutions. Acinar cell function was assessed at various concentrations of ethanol (0-50 mM).
Next, it was investigated as to whether phosphate supplementation could preserve pancreatic acinar cell function. Pancreatic acini from LPD-fed mice were isolated in phosphate-free buffer and treated with 50 mM ethanol and 0-5 mM Na2HPO4.
To further explore the mechanism underlying the effect of phosphate on ethanol-induced acinar cell dysfunction, cellular ATP content and mitochondrial function was investigated.
In order to determine if phosphate sensitizes mitochondria to the effects of alcohol, we measured TMRE fluorescence intensity, a measure of mitochondrial membrane potential that indicates normal mitochondrial function.
Pancreatic acini from LPD-fed mice were again isolated in phosphate-free buffer and treated with 50 mM ethanol and 0-5 mM Na2HPO4.

The test system of series [2] is isolated mouse pancreatic acini. The series is described as follows: Caerulein-induced injury in isolated pancreatic acini. In kind it is cell-based. The following applies: for caerulein-induced damage (release of trypsin, IL-1β and LDH): 1, 5 or 10 mM sodium phosphate, pH 7.4, caerulein 10 nM for 30 minutes. An excerpt:
To evaluate the effects of phosphate on acinar cell function pancreatic acini in vitro were examined High concentrations of caerulein in vitro induce pancreatic injury similar to the effects observed in vivo and this method has been used to study direct effects on pancreatic acinar cells. Specifically, caerulein causes pancreatitis by hyperstimulating the acinar cells through the CCK1 receptor. In isolated pancreatic acini, caerulein causes trypsin activation, generation of the proinflammatory cytokine cytosolic […], and cell necrosis as manifest by LDH release. Each of these pathological results is seen with caerulein hyperstimulation in vivo.
It was observed that phosphate supplementation, independent of its buffering effects, reduced caerulein-induced LDH release, a marker of cell damage (FIG. 4). In addition, it was sought to determine if lack of ATP contributes to pancreatitis and whether the protective effects of phosphate are through restoration of intracellular ATP levels. […] Isolated mouse pancreatic acini were treated with caerulein in buffer containing Na2HPO4 concentrations of 1-10 mM. Supernatant LDH was measured by commercial LDH assay. Cytosolic ATP levels were measured using a commercially available fluorometric assay. *P<0.05, **<0.01, ***<0.001.
All solutions were adjusted to pH 7.4. A supramaximal concentration of caerulein (10 nM) was added for 30 minutes as indicated after which media were analyzed for release of trypsin, IL-1β and LDH. (*P<0.05, **P<0.01, ***P<0.001).
Mitochondrial membrane potential was measured in isolated pancreatic acini using tetramethylrhodamine ethyl ester (TMRE) fluorescence.
Specifically, isolated pancreatic acini were loaded with the mitochondrial fluorescent dye TMRE and incubated in phosphate-free buffer with a supramaximal concentration of caerulein (10 nM). TMRE fluorescence and intracellular ATP levels were measure after 30 minutes. *P<0.05, ****P<0.0001.
Isolated pancreatic acini loaded with TMRE were incubated in buffer with 0 or 5 mM phosphate (left panel). Effects of increasing phosphate concentrations on ATP production are shown in the right panel. *P<0.05, **P<0.01, ****P<0.0001. These findings illustrate the requirement for Pi in maintaining and restoring mitochondrial function and ATP synthesis under the stress of caerulein hyperstimulation.

Series [3] concerns pressure-induced pancreatitis. The series is described as follows: ERCP pressure-induced pancreatitis, nicotinic agonists. The class given is in vivo. An excerpt:
GTS-21 (DMXBA) is a derivative of the natural product anabaseine that acts as a partial agonist at neural nicotinic acetylcholine receptors. GTS-21 is 3-2,4-dimethoxybenzylidene anabaseine.

In series [4] the test system is ethanol-induced pancreatitis in mice. An excerpt:
These findings raise the question of whether phosphate deficiency contributes to the progression of pancreatitis. This may be particularly relevant to alcohol-induced pancreatitis, given that alcoholic patients are susceptible to hypophosphatemia due to nutritional deficiencies and the effects of alcohol ingestion on phosphate absorption. Therefore, it was hypothesized that low phosphate levels may be predispose to alcohol-induced pancreatic injury. To test this hypothesis, we placed mice on a low phosphate diet and determined their susceptibility to ethanol. Animals were placed on a chow diet containing low amounts of phosphate (Pi) for three weeks. The low phosphate diet (Envigo #TD.140659) was comprised of 0.02% Pi compared to normal chow diet which contained 1% Pi. Serum levels of phosphate declined in mice on a low phosphate diet from normal values of 2.2 mM to 1.4 mM (FIG. 12). In order to determine if the diet rendered mice more sensitive to ethanol, mice were administered ethanol by orogastric gavage at […] (30% ethanol at 10 mL/kg) daily for five days (Control mice were gavaged with water). Mice were euthanized 12 hours after the last dose of ethanol. The pancreatitis severity scoring system is a composite of edema, necrosis, inflammatory cell infiltration and hemorrhage severity as previously published. […]

A further series concerns the target T1, Piezol (Mus musculus, UniProt E2JF22).
T1 construct: endogenous in cells; host or cells: isolated pancreatic acini / acinar cells (primary, mouse)
Kind of series: Yoda1 activation of Piezol in pancreatic acinar cells. In kind it is cell-based, mice. The method, then:
Pathological activation of Piezol leads to [Ca^2+]i overload, mitochondrial dysfunction, trypsinogen activation, and acinar cell necrosis. Moreover, Piezol activation explains how elevation of intrapancreatic duct pressure (e.g., ERCP or gallstone impaction) causes pancreatitis. Piezol can be activated by mechanical pushing or shear stress. A method for studying the effects of shear stress on isolated pancreatic acini in vitro was developed. Pancreatic acini are cultured on Matrigel and placed into a fluid flow chamber. Cells can be loaded with either the calcium sensitive dye, Calcium 6-QF (Molecular Devices), or the active trypsin enzyme substrate BZiPAR [rhodamine 110, bis(CBZ-L-isoleucyl-L-prolyl-L-arginine amide)] (10 μM) and imaged using a fluorescence microscope while fluid flow is regulated to control the level of shear stress.
As shown in FIG. 11(A)-(C), subjecting acinar cells to fluid shear stress at 12 dyne/cm^2 produced a prolonged increase in [Ca^2+]i similar to that seen with supramaximal, pathological concentrations of caerulein and was sufficient to cause trypsin activation. Shear pressure also led to mitochondrial membrane depolarization indicating mitochondrial dysfunction. These effects are specific for Piezol since changes were not observed in Piezol1^aci knockout mice. Yoda1 is a selective agonist for Piezol and can be used to simulate pressure by chemically activating Piezol. […] In order to determine if phosphate might protect against pressure-induced pancreatitis, we observed that phosphate supplementation reduced Yoda1-stimulated elevations in [Ca^2+]i and LDH release.

The subject of series [5] is ERCP pancreatitis in mice. The series is described as follows: ERCP pancreatitis mouse model (retrograde pancreatic duct infusion). In kind it is in vivo. The following applies: mice on low phosphate diet; 200 μg/g intraperitoneal 1 and 4 hours after induction; 24 hours.
From the text: For this study, a mouse model of this form of pancreatitis was employed.
Another series has as its system caerulein-treated mice. The series is described as follows: Caerulein-induced pancreatitis in mice. In kind it is in vivo. The following applies: 250 μg/g Na2HPO4 1 hour after first of 6 hourly caerulein injections (50 ng/g); vs normal saline. An excerpt: Caerulein-induced pancreatitis in mice is an established model of acute experimental pancreatitis. Hyperstimulation of the pancreas by cholecystokinin or its analogue caerulein is a commonly used model of experimental acute pancreatitis in rodents. Caerulein produces mild to moderate, non-fatal pancreatitis that resolves spontaneously.
As shown in FIGS. 3A-3C, phosphate supplementation reduced all parameters of pancreatitis following caerulein administration including serum amylase levels (FIG. 3A), pancreatic MPO levels (FIG. 3B) and pancreatic histology (FIG. 3C). Specifically, mice (C56BL/6 adult mice) were treated with 6 hourly injections of caerulein sulfate (50 ng/g) by intraperitoneal injection. Sodium phosphate (250 μg/g Na2HPO4) and normal saline (NS) were given 1 hour after the first injection. The study was terminated 1 hour after the last caerulein injection at which time, blood and pancreas tissue are collected for measurements of serum amylase, and pancreatic edema, MPO, and histological pancreatitis severity. Pancreatic myeloperoxidase (MPO) and serum amylase levels were measured by commercially available assays. **P<0.01 vs. normal saline in caerulein-treated mice.

Setting [6] is: LPD-derived acini, phosphate-free buffer.
The mark [7] stands for this setting: ERCP pressure-induced pancreatic inflammation.
The mark [8] stands for this setting: caerulein 10 nM, phosphate-free buffer, 30 minutes.

T1 sequence (E2JF22 whole entry): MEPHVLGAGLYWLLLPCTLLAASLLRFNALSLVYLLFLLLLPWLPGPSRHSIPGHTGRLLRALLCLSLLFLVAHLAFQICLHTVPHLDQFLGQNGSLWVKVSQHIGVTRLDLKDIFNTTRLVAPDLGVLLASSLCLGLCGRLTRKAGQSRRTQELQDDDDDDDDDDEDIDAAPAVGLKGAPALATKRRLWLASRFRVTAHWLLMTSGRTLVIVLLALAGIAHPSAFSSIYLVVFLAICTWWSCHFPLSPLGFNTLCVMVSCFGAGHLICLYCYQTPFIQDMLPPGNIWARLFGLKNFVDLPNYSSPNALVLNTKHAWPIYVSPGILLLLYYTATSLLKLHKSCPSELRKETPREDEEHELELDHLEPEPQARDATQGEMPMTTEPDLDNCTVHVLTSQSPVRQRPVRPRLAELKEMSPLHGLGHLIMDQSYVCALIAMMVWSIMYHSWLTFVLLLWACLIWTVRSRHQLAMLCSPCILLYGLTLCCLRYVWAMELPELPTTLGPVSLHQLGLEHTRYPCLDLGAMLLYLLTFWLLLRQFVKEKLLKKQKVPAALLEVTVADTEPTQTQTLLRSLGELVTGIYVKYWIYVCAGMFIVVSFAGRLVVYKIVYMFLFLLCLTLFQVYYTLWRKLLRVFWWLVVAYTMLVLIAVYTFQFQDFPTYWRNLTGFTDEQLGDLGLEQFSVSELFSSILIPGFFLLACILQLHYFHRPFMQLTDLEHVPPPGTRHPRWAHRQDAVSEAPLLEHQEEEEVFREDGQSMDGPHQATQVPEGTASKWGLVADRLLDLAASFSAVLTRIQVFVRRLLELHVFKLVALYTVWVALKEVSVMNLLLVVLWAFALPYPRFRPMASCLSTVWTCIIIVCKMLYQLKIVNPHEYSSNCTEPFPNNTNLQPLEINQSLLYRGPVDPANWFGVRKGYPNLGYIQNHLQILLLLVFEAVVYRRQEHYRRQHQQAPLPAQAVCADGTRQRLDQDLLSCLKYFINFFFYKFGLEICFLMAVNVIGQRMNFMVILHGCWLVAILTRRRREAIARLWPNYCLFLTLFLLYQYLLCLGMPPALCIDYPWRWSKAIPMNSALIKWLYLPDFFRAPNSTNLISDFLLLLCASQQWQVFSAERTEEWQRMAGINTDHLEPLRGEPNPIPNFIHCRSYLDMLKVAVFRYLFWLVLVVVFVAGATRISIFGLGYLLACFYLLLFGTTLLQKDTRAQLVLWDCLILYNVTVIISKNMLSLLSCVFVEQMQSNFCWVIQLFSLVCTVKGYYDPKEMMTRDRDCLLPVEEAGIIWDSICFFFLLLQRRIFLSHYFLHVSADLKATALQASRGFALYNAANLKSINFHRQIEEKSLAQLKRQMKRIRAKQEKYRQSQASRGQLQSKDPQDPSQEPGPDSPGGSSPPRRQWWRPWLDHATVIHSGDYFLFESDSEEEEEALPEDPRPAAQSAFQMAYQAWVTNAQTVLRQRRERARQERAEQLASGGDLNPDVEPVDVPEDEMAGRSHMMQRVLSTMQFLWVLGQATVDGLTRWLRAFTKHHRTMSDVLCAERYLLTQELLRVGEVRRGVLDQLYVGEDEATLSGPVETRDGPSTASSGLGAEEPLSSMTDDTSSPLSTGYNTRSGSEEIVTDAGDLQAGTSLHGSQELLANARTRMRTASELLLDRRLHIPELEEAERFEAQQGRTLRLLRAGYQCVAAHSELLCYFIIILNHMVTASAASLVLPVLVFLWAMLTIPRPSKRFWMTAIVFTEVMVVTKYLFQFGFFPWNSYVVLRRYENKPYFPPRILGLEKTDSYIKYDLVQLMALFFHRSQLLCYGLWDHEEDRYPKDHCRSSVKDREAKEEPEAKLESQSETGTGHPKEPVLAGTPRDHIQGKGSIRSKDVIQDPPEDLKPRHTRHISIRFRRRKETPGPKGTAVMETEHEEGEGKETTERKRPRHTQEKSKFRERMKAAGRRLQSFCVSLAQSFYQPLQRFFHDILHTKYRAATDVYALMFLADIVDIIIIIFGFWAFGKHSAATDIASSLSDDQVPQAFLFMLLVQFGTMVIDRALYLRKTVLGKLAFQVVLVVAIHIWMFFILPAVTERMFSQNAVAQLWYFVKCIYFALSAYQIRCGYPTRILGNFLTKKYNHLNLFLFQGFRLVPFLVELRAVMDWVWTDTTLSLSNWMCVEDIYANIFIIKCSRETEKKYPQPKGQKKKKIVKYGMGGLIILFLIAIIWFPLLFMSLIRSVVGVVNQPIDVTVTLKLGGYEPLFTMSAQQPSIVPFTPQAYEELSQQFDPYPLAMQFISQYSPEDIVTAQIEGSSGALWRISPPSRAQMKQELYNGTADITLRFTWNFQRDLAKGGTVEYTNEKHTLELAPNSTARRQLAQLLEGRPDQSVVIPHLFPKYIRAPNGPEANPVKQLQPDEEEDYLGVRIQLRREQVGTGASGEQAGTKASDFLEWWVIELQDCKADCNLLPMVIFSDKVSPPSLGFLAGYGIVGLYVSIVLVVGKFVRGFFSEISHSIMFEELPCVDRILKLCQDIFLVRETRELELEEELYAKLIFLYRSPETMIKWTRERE

Regarding `CCO` [ethanol], the TMRE fluorescence intensity result in series [1] (LPD acini) is given as “significantly decreased”. Besides, the “total cellular ATP levels” value in series [1] (LPD-derived acini) was “significantly decreased”; in series [1] (ND-derived acini) it was “not observed”. In addition, in series [1] (setting [6]), the “Lactate dehydrogenase (LDH)” value is “significantly increased”. Also, the trypsin activity result in series [1] (setting [6]) is recorded as “significantly increased”. For the same molecule, the “LDH and trypsin activity” value in series [1] (acini from mice on normal diet (ND)) is “not seen”.
For `O=P([O-])(O)O.[Na+]` [NaH2PO4], the “caerulein-induced damage (release of trypsin, IL-1β and LDH)” value in series [2] is “protects”. Also, the “mitochondrial function (TMRE fluorescence)” value in series [2] (caerulein hyperstimulation, 0 or 5 mM phosphate) is “dose-dependently restored”. Moreover, the ATP synthesis entry in series [2] (caerulein hyperstimulation, increasing phosphate concentrations) is reported as “dose-dependently restored”.
Regarding `CN1CCCC1c1cccnc1` (centres unmarked) [nicotine], in series [3] (setting [7]), the histopathology result is recorded as “dose-dependently inhibits”, the “pancreatic MPO levels” value was “dose-dependently inhibits”, the pancreatic edema entry is reported as “dose-dependently inhibits” and the serum amylase entry is reported as “dose-dependently inhibits”.
In the case of `COc1ccc(/C=C2\CCCN=C2c2cccnc2)c(OC)c1` [GTS-21, 3-2,4-dimethoxybenzylidene anabaseine], the “protection of the pancreas against pressure-induced pancreatitis” value in series [3] (prior splenectomy) was “abolished”; in series [3] (systemic administration), “significantly protected”. In addition, the “protection against pressure-induced acute pancreatitis” value in series [3] (splenocytes depleted of T cells) is “do not protect”.
Regarding phosphate, in series [4] (mice on low phosphate diet, sodium phosphate 50 mg/kg gavage daily for 5 days), the ethanol-induced injury result was “protects”. Also, the “caerulein-induced damage (release of trypsin, IL-1β and LDH)” value in series [2] is recorded as “improved”. At Piezol (phosphate supplementation), the “Yoda1-stimulated LDH release” value is reported as “reduced” and the “Yoda1-stimulated elevations in [Ca2+]i” value is recorded as “reduced”.
For `O=P(O)(O)O` [sodium phosphate], the “mortality of ethanol-treated mice on the low phosphate diet” value in series [4] (sodium phosphate 50 mg/kg orogastric gavage daily for 5 days, ethanol 3 mg/kg daily for 5 days) is recorded as “significantly reduced”. The “pancreatic injury (survival, pancreatic edema)” value in series [5] was “protected”.
As to `Clc1cccc(Cl)c1CSc1nnc(-c2cnccn2)s1` [Yoda1], at Piezol (Yoda1 25 μM), the LDH release result was “increased” and the “[Ca2+]i” value is reported as “caused an elevation”.
As to caerulein, in series [2] (setting [8]), the ATP production entry was “reduced ATP production” and the “mitochondrial membrane potential (TMRE fluorescence)” value is reported as “caused mitochondrial depolarization”.
Turning to `O=P([O-])([O-])O.[Na+].[Na+]` [Na2HPO4], the “caerulein-induced LDH release” value in series [2] (buffer containing Na2HPO4 1-10 mM) is on record as “reduced”. The “cytosolic ATP levels” value in series [2] (caerulein-treated acini, Na2HPO4 1-10 mM) is “restored ATP levels in a dose-dependent fashion”. In addition, in the series on caerulein-treated mice, the “pancreatic MPO levels” value is on record as “reduced”, the pancreatic histology result is on record as “reduced” and the serum amylase levels result is “reduced”. In series [1] (LPD acini, 0-5 mM Na2HPO4), the ATP levels result is “significantly increased” and the TMRE fluorescence intensity entry is reported as “markedly improved”. In series [1] (LPD acini, 5 mM Na2HPO4), the LDH result is listed as “significantly decreased” and the trypsin activity entry is on record as “significantly decreased”.
